From patent publication US12479847B2 (DANA-FARBER CANCER INSTITUTE, INC., priority 2019, dated 2025)

Assays:
Assay in all cases: KINOMEscan (ScanMAX) kinase profiling
Type in all cases: binding
panel of 468 kinases [1] = biological target: T1, panel of 468 kinases (Homo sapiens, UniProt P78362); settings: SRPK2; 1 μM; read-out: % control
T1 construct: purchased KINOMEscan (ScanMAX) service

panel of 468 kinases [2] = biological target: T2, panel of 468 kinases (Homo sapiens, UniProt Q15139); settings: PRKD1; 1 μM; read-out: % control
T2 construct: purchased KINOMEscan (ScanMAX) service
T2 sequence (Q15139 1-912): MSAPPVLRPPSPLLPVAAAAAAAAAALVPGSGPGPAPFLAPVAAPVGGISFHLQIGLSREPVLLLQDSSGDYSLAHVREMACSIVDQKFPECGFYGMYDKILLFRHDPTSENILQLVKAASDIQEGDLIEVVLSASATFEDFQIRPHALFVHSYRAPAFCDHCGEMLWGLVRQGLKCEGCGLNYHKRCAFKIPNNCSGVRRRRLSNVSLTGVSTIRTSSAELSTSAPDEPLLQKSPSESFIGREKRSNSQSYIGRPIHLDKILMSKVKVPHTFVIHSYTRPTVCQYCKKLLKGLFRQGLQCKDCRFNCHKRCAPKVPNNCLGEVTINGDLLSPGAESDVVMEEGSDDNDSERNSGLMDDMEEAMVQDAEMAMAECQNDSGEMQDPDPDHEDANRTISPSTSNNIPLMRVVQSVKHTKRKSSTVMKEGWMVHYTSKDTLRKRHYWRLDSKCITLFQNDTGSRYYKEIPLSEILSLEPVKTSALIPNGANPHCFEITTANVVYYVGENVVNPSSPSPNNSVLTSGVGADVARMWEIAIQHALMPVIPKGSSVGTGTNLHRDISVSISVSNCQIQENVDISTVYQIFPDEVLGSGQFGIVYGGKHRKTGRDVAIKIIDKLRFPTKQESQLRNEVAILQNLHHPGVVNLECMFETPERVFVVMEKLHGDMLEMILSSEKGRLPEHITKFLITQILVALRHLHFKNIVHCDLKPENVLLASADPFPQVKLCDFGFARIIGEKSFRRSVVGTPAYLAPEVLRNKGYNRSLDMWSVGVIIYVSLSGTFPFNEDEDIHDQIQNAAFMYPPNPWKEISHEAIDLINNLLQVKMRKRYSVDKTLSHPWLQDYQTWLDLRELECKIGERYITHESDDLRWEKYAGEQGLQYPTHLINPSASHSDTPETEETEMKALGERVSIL

panel of 468 kinases [3] = biological target: T3, panel of 468 kinases (Homo sapiens, UniProt Q99759); settings: MAP3K3; 1 μM; read-out: % control
T3 construct: purchased KINOMEscan (ScanMAX) service
T3 sequence (Q99759 1-626): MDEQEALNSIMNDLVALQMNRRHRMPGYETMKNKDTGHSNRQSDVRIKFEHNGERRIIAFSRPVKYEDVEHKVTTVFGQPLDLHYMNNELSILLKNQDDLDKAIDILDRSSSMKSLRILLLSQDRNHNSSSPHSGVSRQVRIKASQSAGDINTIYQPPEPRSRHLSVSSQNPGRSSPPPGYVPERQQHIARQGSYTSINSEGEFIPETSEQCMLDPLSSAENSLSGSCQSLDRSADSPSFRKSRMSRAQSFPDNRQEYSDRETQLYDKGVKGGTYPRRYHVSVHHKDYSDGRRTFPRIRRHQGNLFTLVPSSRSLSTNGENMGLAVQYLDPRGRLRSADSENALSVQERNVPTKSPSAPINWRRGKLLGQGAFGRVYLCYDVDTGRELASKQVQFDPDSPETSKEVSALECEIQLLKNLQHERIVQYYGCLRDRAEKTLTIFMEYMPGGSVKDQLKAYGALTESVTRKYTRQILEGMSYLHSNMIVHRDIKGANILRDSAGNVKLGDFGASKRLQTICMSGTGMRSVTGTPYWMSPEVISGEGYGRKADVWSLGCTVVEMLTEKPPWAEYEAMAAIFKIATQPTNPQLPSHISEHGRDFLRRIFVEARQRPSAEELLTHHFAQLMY

panel of 468 kinases [4] = biological target: T4, panel of 468 kinases (Homo sapiens, UniProt Q13163); settings: MEK5; 1 μM; read-out: % control
T4 construct: purchased KINOMEscan (ScanMAX) service
T4 sequence (Q13163 1-448): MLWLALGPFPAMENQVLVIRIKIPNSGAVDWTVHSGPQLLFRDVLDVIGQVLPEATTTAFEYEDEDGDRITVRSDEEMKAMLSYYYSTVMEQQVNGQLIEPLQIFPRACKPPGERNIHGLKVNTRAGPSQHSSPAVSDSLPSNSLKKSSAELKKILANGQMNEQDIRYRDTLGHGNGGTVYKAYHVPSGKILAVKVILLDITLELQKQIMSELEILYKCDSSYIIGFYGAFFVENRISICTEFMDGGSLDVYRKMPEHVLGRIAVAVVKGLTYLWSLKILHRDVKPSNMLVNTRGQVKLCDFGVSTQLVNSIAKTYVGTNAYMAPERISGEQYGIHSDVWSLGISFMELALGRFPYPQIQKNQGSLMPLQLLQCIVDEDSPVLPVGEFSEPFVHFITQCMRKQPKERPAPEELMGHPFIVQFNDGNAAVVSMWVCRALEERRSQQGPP

panel of 468 kinases [5] = biological target: T5, panel of 468 kinases (Homo sapiens, UniProt P22694); settings: PKAC-beta; 1 μM; read-out: % control
T5 construct: purchased KINOMEscan (ScanMAX) service

T1 sequence (P78362 whole entry): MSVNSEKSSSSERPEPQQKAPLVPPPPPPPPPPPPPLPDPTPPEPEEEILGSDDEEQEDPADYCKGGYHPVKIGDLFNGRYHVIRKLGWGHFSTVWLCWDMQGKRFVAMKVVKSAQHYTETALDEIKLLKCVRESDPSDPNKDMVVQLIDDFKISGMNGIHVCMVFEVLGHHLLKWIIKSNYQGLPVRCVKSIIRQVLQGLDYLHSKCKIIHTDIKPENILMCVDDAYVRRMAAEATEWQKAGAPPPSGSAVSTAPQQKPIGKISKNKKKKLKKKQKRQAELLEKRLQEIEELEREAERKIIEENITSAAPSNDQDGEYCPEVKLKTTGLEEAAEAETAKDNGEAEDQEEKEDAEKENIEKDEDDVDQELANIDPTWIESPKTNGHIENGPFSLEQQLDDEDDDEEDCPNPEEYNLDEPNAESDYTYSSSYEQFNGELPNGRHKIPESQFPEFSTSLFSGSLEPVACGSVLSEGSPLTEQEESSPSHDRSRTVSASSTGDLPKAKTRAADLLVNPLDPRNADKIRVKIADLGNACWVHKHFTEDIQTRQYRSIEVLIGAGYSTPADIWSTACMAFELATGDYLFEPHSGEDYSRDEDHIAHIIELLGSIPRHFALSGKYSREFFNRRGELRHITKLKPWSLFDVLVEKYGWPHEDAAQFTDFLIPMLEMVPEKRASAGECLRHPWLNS

Compound | remaining binding at 1 µM (panel of 468 kinases [1]) | remaining binding at 1 µM (panel of 468 kinases [2]) | remaining binding at 1 µM (panel of 468 kinases [3]) | remaining binding at 1 µM (panel of 468 kinases [4]) | remaining binding at 1 µM (panel of 468 kinases [5])
CNc1nc(Nc2ccc(S(=O)(=O)N3CCC(N4CCOCC4)CC3)cc2OC)nc2[nH]cc(Cl)c12 [Compound 12, 5-chloro-N2-(2-methoxy-4-((4-morpholinopiperidin-1-yl)sulfonyl)phenyl)-N4-methyl-7H-pyrrolo[2,3-d]pyrimidine-2,4-diamine] | 100% | 8.8% | 100% | 86% | 100%
CNc1nc(Nc2ccc(C(=O)N3CCC(N4CCOCC4)CC3)c3c2OCO3)nc2[nH]cc(Cl)c12 [Compound 75, (7-((5-chloro-4-(methylamino)-7H-pyrrolo[2,3-d]pyrimidin-2-yl)amino)benzo[d][1,3]dioxol-4-yl)(4-morpholinopiperidin-1-yl)methanone] | 95% | 7.3% | 43% | 47% | 100%
CNc1nc(Nc2ccc(P3(=O)CCN(C4CCOCC4)CC3)cc2OC)nc2[nH]cc(Cl)c12 [Compound 77, 4-(4-((5-chloro-4-(methylamino)-7H-pyrrolo[2,3-d]pyrimidin-2-yl)amino)-3-methoxyphenyl)-1-(tetrahydro-2H-pyran-4-yl)-1,4-azaphosphinane 4-oxide] | 84% | 7% | 100% | 61% | 100%
